Values after ≈ are worked out from the molar mass of the structure shown.
Assay: aqueous solubility in 0.1 M sodium phosphate buffer (pH 7.4)
Format: physicochemical
Text: The present invention provides several polymorph crystalline forms and an amorphous form of the compound of Formula I. Each crystalline or amorphous form of the compound can be characterized by one or more of the following: X-ray powder diffraction pattern (i.e., X-ray diffraction peaks at various diffraction angles (2θ), melting point onset (and onset of dehydration for hydrated forms) as illustrated by endotherms of a Differential Scanning Calorimetry (DSC) thermogram, aqueous solubility, light stability under International Conference on Harmonization (ICH) high intensity light conditions, and physical and chemical storage stability.

aqueous solubility	SMILES
1.3 µg/mL (≈ 2.88 µM)	Cc1cc(C)nc(/C=C/c2n[nH]c3cc(Nc4ccccc4C(=O)NCC#CCO)ccc23)c1 [Form II, 2-{3-[(E)-2-(4,6-dimethyl-pyridin-2-yl)-vinyl]-1H-indazol-6-ylamino}-N-(4-hydroxy-but-2-ynyl)-benzamide]
3.2 µg/mL (≈ 7.09 µM)	Cc1cc(C)nc(/C=C/c2n[nH]c3cc(Nc4ccccc4C(=O)NCC#CCO)ccc23)c1 [Form III, 2-{3-[(E)-2-(4,6-dimethyl-pyridin-2-yl)-vinyl]-1H-indazol-6-ylamino}-N-(4-hydroxy-but-2-ynyl)-benzamide]
1.3 µg/mL (≈ 2.88 µM)	Cc1cc(C)nc(/C=C/c2n[nH]c3cc(Nc4ccccc4C(=O)NCC#CCO)ccc23)c1 [Form IV, 2-{3-[(E)-2-(4,6-dimethyl-pyridin-2-yl)-vinyl]-1H-indazol-6-ylamino}-N-(4-hydroxy-but-2-ynyl)-benzamide]
0.8 µg/mL (≈ 1.77 µM)	Cc1cc(C)nc(/C=C/c2n[nH]c3cc(Nc4ccccc4C(=O)NCC#CCO)ccc23)c1 [Form Ia, 2-{3-[(E)-2-(4,6-dimethyl-pyridin-2-yl)-vinyl]-1H-indazol-6-ylamino}-N-(4-hydroxy-but-2-ynyl)-benzamide]
